Structures are written as SMILES. pKi: −log10 of the molar value. Some results are limits rather than exact numbers.

From ChEMBL document CHEMBL4190266, “Deconstruction - reconstruction approach to analyze the essential structural elements of tetrahydro-3-benzazepine-based antagonists of GluN2B subunit containing NMDA receptors” (Eur J Med Chem, 2017) come the findings set out here.

Series [1] in a line: Displacement of [3H]ifenprodil from recombinant human GluN1A/GluN2B receptor expressed in mouse L(tk-) cell membranes after 120 mins by microbeta scintillation counting method. (In general: In a radioligand displacement assay an active substance lowers the binding of a labelled ligand.)
Series [2] can be described thus: n-Octanol-buffer distribution coefficient, log D of the compound at pH 7.4 by mass spectrometry based shake flask method. It counts as physicochemical.
Series [3] deals with T1, Sigma intracellular receptor 2 (Rattus norvegicus, UniProt Q5U3Y7).
T1 sequence (Q5U3Y7 whole entry): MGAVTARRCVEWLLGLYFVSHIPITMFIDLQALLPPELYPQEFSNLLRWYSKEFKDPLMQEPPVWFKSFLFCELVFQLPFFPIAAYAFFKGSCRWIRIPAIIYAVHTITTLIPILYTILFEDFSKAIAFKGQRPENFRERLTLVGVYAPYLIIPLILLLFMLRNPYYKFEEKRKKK
Description: Displacement of [3H]DTG from sigma2 receptor in rat liver membranes after 120 mins by microbeta scintillation counting method. It counts as cell membranes, Membrane.

A short description of series [4]: Selectivity ratio of Ki for sigma1 receptor in guinea pig brain cortex membranes to Ki for recombinant human GluN1A/GluN2B receptor expressed in mouse L(tk-) cell membranes. The class given is cell-based.
Series [5] in a line: Selectivity ratio of Ki for sigma2 receptor in rat liver membranes to Ki for recombinant human GluN1A/GluN2B receptor expressed in mouse L(tk-) cell membranes. The class given is cell-based.
In series [6] the target is Sigma non-opioid intracellular receptor 1 (Cavia porcellus, UniProt Q60492).
Sigma non-opioid intracellular receptor 1, sequence (Q60492 whole entry): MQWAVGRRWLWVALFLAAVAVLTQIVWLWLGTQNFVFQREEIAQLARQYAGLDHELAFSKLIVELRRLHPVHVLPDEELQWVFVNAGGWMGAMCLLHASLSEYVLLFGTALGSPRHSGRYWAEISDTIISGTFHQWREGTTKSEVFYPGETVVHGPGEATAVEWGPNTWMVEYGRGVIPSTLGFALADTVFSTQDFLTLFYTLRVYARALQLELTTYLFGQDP
Description: Displacement of [3H]-(+)-pentazocine from sigma1 receptor in guinea pig brain cortex membranes after 120 mins by microbeta scintillation counting method
Series [7] is described as follows: Antagonist activity at GluN1A/GluN2A receptor (unknown origin) expressed in Xenopus laevis oocytes assessed as inhibition of glutamate/glycine-induced channel current at 1 uM at -70 mV holding potential by two electrode voltage clamp method relative to control. It counts as cell-based. The settings on record: Homo sapiens.
The species entered for another series is Homo sapiens. Description: Antagonist activity at glutamate/glycine-stimulated recombinant human GluN1A/GluN2B receptor expressed in mouse L(tk-) cells assessed as protection against receptor overstimulation-induced excitotoxicity at 10 to 100 uM preincubated for 30 mins followed by glutamate/glycine stimulation measured after 6 hrs by LDH release assay relative to control. The class given is cell-based.

The nature of series [8]: Selectivity ratio of Ki for PCP binding site of NMDA receptor in pig brain cortex membranes to Ki for recombinant human GluN1A/GluN2B receptor expressed in mouse L(tk-) cell membranes.

By pKi is commonly meant −log10 of the Ki, conventionally taken in molar units. The term logD denotes the decadic logarithm of the distribution of all forms, ionised or not, between an organic phase and buffer at a given pH. On to `c1ccc(CCCCN2CCc3ccccc3CC2)cc1`, for which the pKi in [1] is 6.64; in [3] it was 7.46; in [6], 8.00. Besides, the logD in series [2] turned out to be 3.13. Moreover, the results for the Ratio Ki in [4] and in series [5] were 0.04 and 0.15, respectively.
`O=[N+]([O-])c1ccc2c(c1)C(O)CN(Cc1ccccc1)CC2` (stereo not drawn): the pKi was below 6.00 in [1], 5.34 in series [3] and 6.49 in series [6]. The Ratio Ki in series [4] was below 0.3.
Broadly, the inhibition is how much of the control response was suppressed. For the molecule `O=[N+]([O-])c1ccc2c(c1)C(O)CN(C1CCC(c3ccccc3)CC1)CC2` (mixture of isomers), the pKi in series [1] is 7.80; in [3] it was 7.62; in series [6], 6.44. The values for the Ratio Ki in series [4] and in [5] were 23 and 2, respectively. The inhibition in series [7] was 4.8%; in the series listed under Homo sapiens it was below 6%.
In the case of `O=[N+]([O-])c1ccc2c(c1)C(O)CN(CCCCc1ccccc1)CC2` (stereo not drawn), the pKi in series [1] is 6.52; in [3] it was 6.66; in [6], 6.21. In [2], this molecule registered a logD of 3.82. Also, the Ratio Ki in [4] worked out at 2; in series [5] it was 0.7.
On to `CC(C(O)c1ccc(O)cc1)N1CCC(Cc2ccccc2)CC1` (stereo not drawn) [IFENPRODIL], for which the pKi in series [1] is 8.00. Also, the inhibition in [7] is 87%.
`OC1CN(CCCCOc2ccccc2)CCc2ccccc21` (stereo not drawn): the pKi in series [1] is 6.60; in series [3] it was 6.55; in series [6], below 5.00. For the same molecule, the results for the Ratio Ki in series [4] and in series [5] were above 41 and 1, respectively.
The corresponding values for `O=[N+]([O-])c1ccc2c(c1)C(O)CN(CCCCOc1ccccc1)CC2` (stereo not drawn) are 6.11, 6.00, 5.82, 2 and 1.
In the case of `O=[N+]([O-])c1ccc2c(c1)C(O)CN(CCCc1ccccc1)CC2` (stereo not drawn), the pKi in series [1] was 6.96; in [3], 6.52; in series [6], 5.89. Also, the Ratio Ki in series [4] turned out to be 12; in series [5], 3.
For the molecule `OC1CN(C2CCC(c3ccccc3)CC2)CCc2ccccc21` (mixture of isomers), the pKi is 8.66 in series [1], 7.26 in [3] and 7.09 in series [6]. The Ratio Ki in [4] is 37; in [5], 25; in [8], above 4500. For the same molecule, the inhibition in series [7] is 0.8%; in the series filed under Homo sapiens, below 6%.
For the molecule `O=C(c1ccccc1)N1CCC(N2CCc3ccccc3C(O)C2)CC1` (stereo not drawn), the figures for the pKi in [1], in series [3] and in series [6] were 6.05, 5.85 and 6.10, respectively. The Ratio Ki in series [4] was found to be 0.9; in series [5], 2.
`Oc1ccc2c(c1)CCN(CCCCc1ccccc1)CC2O` (stereo not drawn) displayed a logD in [2] of 1.67.
As to `OC(CN1CCC(Cc2ccc(F)cc2)CC1)c1ccc(Cl)cc1` (stereo not drawn) [ELIPRODIL], in series [1], the pKi was 7.89.
As for `O=[N+]([O-])c1ccc2c(c1)C(O)CN(Cc1ccc(-c3ccccc3)cc1F)CC2` (stereo not drawn), the figures for the pKi in series [1], in series [3] and in [6] were below 6.00, 5.85 and 5.55, respectively.
The corresponding values for `COc1ccc(C(=O)CCCN2CCc3ccccc3C(O)C2)cc1` (stereo not drawn) are below 6.00, 5.96 and below 5.00.
Take `O=[N+]([O-])c1ccc2c(c1)C(O)CN(CCCCCc1ccccc1)CC2` (stereo not drawn): the pKi is 6.62 in series [1], 6.94 in series [3] and 7.00 in series [6]. Moreover, the figures for the Ratio Ki in series [4] and in series [5] were 0.4 and 0.5, respectively.
As for `OC1CN(C2CCN(Cc3ccccc3)CC2)CCc2ccccc21` (stereo not drawn), the pKi in series [1] was 8.22; in series [3], 7.47; in [6], 8.46. Also, the Ratio Ki in [4] turned out to be 0.6; in series [5] it was 6. In addition, the inhibition in [7] was 13%; in the series listed under Homo sapiens, below 6%.
For the molecule `Nc1ccc2c(c1)C(O)CN(CCCCCc1ccccc1)CC2` (stereo not drawn), the pKi in series [1] is 6.89; in series [3], 6.96; in series [6], 6.59. The Ratio Ki in series [4] is 2; in [5], 0.9.
As for `OC1CN(CCCCc2ccccc2)CCc2ccccc21` (stereo not drawn), the logD in [2] amounted to 2.7.
For the molecule `OC1CN(CCc2ccccc2)CCc2ccccc21` (stereo not drawn), the pKi in series [3] is 5.49; in series [6], 5.80. Besides, the figures for the Ratio Ki in series [4] and in series [5] were 1 and 2, respectively.
Take `Nc1ccc2c(c1)C(O)CN(CCCCc1ccccc1)CC2` (stereo not drawn): the pKi in series [1] is 6.00; in series [3], 6.01; in series [6], below 5.00. The same molecule showed a logD in series [2] of 1.58. The Ratio Ki in series [4] is above 10; in [5], 1.
As for `c1ccc(CCCCCN2CCc3ccccc3CC2)cc1`, the results for the pKi in series [1], in [3] and in [6] were 6.96, 6.77 and 7.32, respectively. The Ratio Ki in series [4] was found to be 0.4; in series [5], 1.
Regarding `O=[N+]([O-])c1ccc2c(c1)C(O)CN(CCc1ccccc1)CC2` (stereo not drawn), the pKi in series [1] was 5.80; in series [3] it was below 5.00; in [6], 5.74. The figures for the Ratio Ki in [4] and in series [5] were 1 and 6, respectively.
For the molecule `O=C(CCCN1CCc2ccccc2C(O)C1)c1ccc(F)cc1` (stereo not drawn), the figures for the pKi in series [3] and in series [6] were 7.21 and 5.96, respectively. Also, the Ratio Ki was found to be 4 in series [4] and 0.2 in series [5].
Regarding `OC1CN(Cc2ccc(-c3ccccc3)cc2)CCc2ccccc21` (stereo not drawn), the results for the pKi in series [1], in [3] and in series [6] were 6.68, 6.12 and 6.64, respectively. The values for the Ratio Ki in series [4] and in series [5] were 1 and 4, respectively.
The like results for `OC1CN(CCCCCc2ccccc2)CCc2ccccc21` (stereo not drawn) were, in that order, 7.17, 6.92, 6.34, 7 and 2.
The corresponding values for `c1ccc(-c2ccc(CN3CCc4ccccc4CC3)cc2)cc1` are 7.12, 6.92, 7.80, 0.2 and 2.
